Experimental data from patent US9751919B2, “Antimicrobial compositions comprising a hyaluronic acid binding peptide and a β-lactam antibiotic” (priority 2012, dated 2017).
“And” between values parts separate entries of the source, which are not always exact repeats. Equal entries are not always repeated. Marks after values point to notes of the source that are not given here.

What was measured:
Test in all cases: Checkerboard assay (FIC index)
[1] = tested on: S. pneumoniae; type: cell-based, Streptococcus pneumoniae; conditions: antibiotic combined with PEP35;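 also: each agent diluted from 0.03 to 4 times its MIC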
Protocol: (§1) The checkerboard assays were carried out as described by Eliopoulos and Moellering (Chapter 9) in Antibiotic in Laboratory Medicine, Lorian Ed. 1996 as well as Bonapace et al. Diagnostic Microbiology and Infectious Diseases 2002; 44:363-366 and Bonapace et al. Diagnostic Microbiology and Infectious Diseases 2000; 38:43-50. In brief, checkerboard assays were performed in 96 well microtitre trays using an 8-by-8 well configuration. […] 96-well custom designed microtitre plates contained 100 ul/well of cation adjusted Mueller-Hinton broth (eg. for Enterobacteriaceae) with or without lysed horse blood (2-5% V/V) [eg. for S. pneumoniae] and were inoculated to achieve a final concentration of approximately 5×10^5 CFU/ml and incubated in ambient air for 24 hours prior to reading. Colony counts were performed periodically to confirm inocula. Quality control was performed every two weeks using a variety of ATCC QC organisms including; S. pneumoniae 49619, S. aureus 29213, E. faecalis 29212, E. coli 25922 and P. aeruginosa 27853. For all antimicrobials as well as PEP35, CLSI criteria was used.
(§2) The fractional inhibitory concentration index (FIC index) was used to interpret synergy, antagonism or additivity/indifference. FIC index=FIC of drug A+FIC of drug B where:
(§3) The FIC of drug A and drug B is calculated as follows, FIC drug A=MIC of drug A in combination/MIC of drug A alone and FIC of drug B=MIC of drug B in combination/MIC of drug B alone. Synergy is defined as FIC index ≦0.5, additivity/indifference FIC >0.5-4 and antagonism FIC index >4.
(§4) Antimicrobials used included PEP35, cefazolin, ceftriaxone, vancomycin, linezolid, tigecycline and daptomycin versus Gram-positive cocci and PEP35, gentamicin, levofloxacin, piperacillin/tazobactam, meropenem and colistin (Polymyxin E) versus Gram-negative bacilli. These agents were obtained as laboratory grade powders from their respective manufacturers. Stock solutions were prepared and dilutions made as described by the Clinical Laboratory Standards Institute (2005 CLSI).
(§5) Organisms included Gram-positive cocci (2 strains of each): Methicillin-susceptible Staphylococcus aureus (MSSA), community-associated (CA) and healthcare-associated (HA) methicillin-resistant Staphylococcus aureus (MRSA), vancomycin-intermediate Staphylococcus aureus (VISA), vancomycin-resistant Staphylococcus aureus (VRSA), methicillin-resistant Staphylococcus epidermidis (MRSE), Streptococcus pyogenes, Streptococcus agalactiae, Streptococcus pneumoniae, Enterococcus faecalis, Enterococcus faecium and vancomycin-resistant enterococcus (VRE). Gram-negative bacilli tested (2 strains of each) included: E. coli, Pseudomonas aeruginosa, Klebsiella pneumoniae, K. oxytoca, Enterobacter cloacae, P. mirabilis and Stenotrophomonas maltophilia. MIC testing, following two subcultures from frozen stock were determined by the CLSI 2005 approved broth microdilution method.

[2] = tested on: MRSE; type: cell-based, Staphylococcus epidermidis; conditions: antibiotic combined with PEP35;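 also: each agent diluted from 0.03 to 4 times its MIC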
Protocol: as §1, §2, §3, §4, §5

[3] = tested on: S. pyogenes; type: cell-based, Streptococcus pyogenes; conditions: antibiotic combined with PEP35
Protocol: as §1, §2, §3, §4, §5

[4] = tested on: E. faecalis; type: cell-based, Enterococcus faecalis; conditions: antibiotic combined with PEP35
Protocol: as §1, §2, §3, §4, §5

[5] = tested on: VISA; type: cell-based, Staphylococcus aureus;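 also: each agent diluted from 0.03 to 4 times its MIC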
Protocol: (§6) Checkerboard assays were carried out as described by Bonapace et al.
as §1, with “Diagnostic” for “The checkerboard assays were carried out as described by Eliopoulos and Moellering (Chapter 9) in Antibiotic in Laboratory Medicine, Lorian Ed. 1996 as well as Bonapace et al. Diagnostic”, “2002; 44:363-366.” for “2002; 44:363-366 and Bonapace et al. Diagnostic Microbiology and Infectious Diseases 2000; 38:43-50.”, “27853. […] All peptides were assessed for synergy with β-lactams and vancomycin.” for “27853.”, “as the peptides,” for “as PEP35,”, “criteria were” for “criteria was”
as §2
as §3, with “was” for “is”, “additivity/indifference defined as a” for “additivity/indifference”, “between 0.5 and 4” for “>0.5-4”, “antagonism defined as an” for “antagonism”
as §1, §3, §4
(§7) Organisms included Gram-positive cocci (2 strains of each): Methicillin-susceptible Staphylococcus aureus (MSSA), community-associated (CA) and healthcare-associated (HA) methicillin-resistant Staphylococcus aureus (MRSA), vancomycin-intermediate Staphylococcus aureus (VISA), vancomycin-resistant Staphylococcus aureus (VRSA), methicillin-resistant Staphylococcus epidermidis (MRSE), Streptococcus pyogenes, Streptococcus agalactiae, Streptococcus pneumoniae, Enterococcus faecalis, Enterococcus faecium and vancomycin-resistant enterococcus (VRE). […]

[6] = tested on: MSSA; type: cell-based, Staphylococcus aureus;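 also: each agent diluted from 0.03 to 4 times its MIC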
Protocol: as §6
as §1, with “Diagnostic” for “The checkerboard assays were carried out as described by Eliopoulos and Moellering (Chapter 9) in Antibiotic in Laboratory Medicine, Lorian Ed. 1996 as well as Bonapace et al. Diagnostic”, “2002; 44:363-366.” for “2002; 44:363-366 and Bonapace et al. Diagnostic Microbiology and Infectious Diseases 2000; 38:43-50.”, “27853. […] All peptides were assessed for synergy with β-lactams and vancomycin.” for “27853.”, “as the peptides,” for “as PEP35,”, “criteria were” for “criteria was”
as §2
as §3, with “was” for “is”, “additivity/indifference defined as a” for “additivity/indifference”, “between 0.5 and 4” for “>0.5-4”, “antagonism defined as an” for “antagonism”
as §1, §3, §4, §7

[7] = tested on: VRE; type: cell-based, Enterococcus faecium; conditions: antibiotic combined with PEP35
Protocol: as §1, §2, §3, §4, §5

[8] = tested on: E. Faecium; type: cell-based, Enterococcus faecium; conditions: antibiotic combined with PEP35
Protocol: as §1, §2, §3, §4, §5

[9] = tested on: S. agalactiae; type: cell-based, Streptococcus agalactiae; conditions: antibiotic combined with PEP35
Protocol: as §1, §2, §3, §4, §5

[10] = S. pneumoniae-Pen I 72302 (MHB)
[11] = S. pneumoniae-Pen I 78663 (MHB)
[12] = S. pneumoniae-Pen R 76065 (MHB)
[13] = S. pneumoniae-Pen R 78519 (MHB)
[14] = S. pneumoniae-Pen S 70400 (MHB)
[15] = S. pneumoniae-Pen S 71263 (MHB)
[16] = antibiotic combined with PEP35, VISA 92
[17] = antibiotic combined with PEP35, VISA 95
[18] = β-lactam combined with HybPEP35-1, VISA 96
[19] = β-lactam combined with PEP-52, VISA 96
[20] = β-lactam combined with Scrambled PEP35, VISA 96
[21] = antibiotic combined with PEP35, MSSA 83424
[22] = β-lactam combined with HybPEP35-1, MSSA 79333
[23] = β-lactam combined with PEP-52, MSSA 79333
[24] = β-lactam combined with Scrambled PEP35, MSSA 79333
[25] = antibiotic combined with PEP35, VISA 96
[26] = antibiotic combined with PEP35, MSSA 79333

Structure (SMILES) | Avg ΣFIC (range) [1, 10] | Avg ΣFIC (range) [1, 11] | Avg ΣFIC (range) [1, 12] | Avg ΣFIC (range) [1, 13] | Avg ΣFIC (range) [1, 14] | Avg ΣFIC (range) [1, 15] | Avg ΣFIC (range) ([2]; MRSE 79617) | Avg ΣFIC (range) ([2]; MRSE 83100) | Avg ΣFIC (range) ([3]; S. pyogenes 77765 (MHB)) | Avg ΣFIC (range) ([3]; S. pyogenes 79531 (MHB)) | Avg ΣFIC (range) ([4]; E. faecalis 70468) | Avg ΣFIC (range) ([4]; E. faecalis 78145) | Avg ΣFIC (range) [5, 16] | Avg ΣFIC (range) [5, 17] | Avg ΣFIC (range) [6, 21] | Avg ΣFIC (range) ([7]; VRE 70769) | Avg ΣFIC (range) ([7]; VRE 77872) | Avg ΣFIC (range) ([8]; E. Faecium 78024) | Avg ΣFIC (range) ([8]; E. Faecium 78352) | Avg ΣFIC (range) ([9]; S. agalactiae 80870 (MHB)) | also measured
Cc1nnc(SCC2=C(C(=O)O)N3C(=O)[C@@H](NC(=O)Cn4cnnn4)[C@H]3SC2)s1 [Cefazolin] | 1.1 (1.0-1.25) | 1.1 (1.0-1.25) | 0.70 (0.53-1.06) | 0.97 (0.75-1.12) | 0.68 (0.515-1.06) | 0.99 (0.62-1.25) | 0.88 (0.53-1.25) | 0.52 (0.37-0.62) | 1.04 (0.75-1.25) | 1.19 (1.03-1.5) | 0.94 (0.56-1.25) | 0.93 (0.62-1.06) | 0.33 (0.18-0.53) and 0.45 (0.18-1.015) | 0.49 (0.31-0.62) and 0.37 (0.18-0.56) | 1.02 (0.75-1.25) | >1* | >1* | 1.16 (1.015-1.5) | 1.10 (1-1.25) | 0.92 (0.56-1.25) | Avg ΣFIC (range) [5, 18]: 0.30; Avg ΣFIC (range) [5, 19]: >1*; Avg ΣFIC (range) [5, 20]: 0.30; Avg ΣFIC (range) [6, 22]: 0.57; Avg ΣFIC (range) [6, 23]: >1*; Avg ΣFIC (range) [6, 24]: 0.57; Avg ΣFIC (range) ([9]; S. agalactiae 81262 (MHB)): 1.10 (1-1.25)
CO/N=C(\C(=O)N[C@@H]1C(=O)N2C(C(=O)O)=C(CSc3nc(=O)c(=O)[nH]n3C)CS[C@H]12)c1csc(N)n1 [Ceftriaxone] | 1.05 (0.75-1.25) | 1.1 (1.0-1.25) | 1.21 (1.03-1.5) | 1.05 (0.75-1.25) | 0.99 (0.62-1.06) | 0.91 (0.62-1.12) | 0.88 (0.53-1.25) | 1.05 (0.75-1.25) | 1.19 (0.03-1.5) | 1.19 (1.03-1.5) | 1.1 (1-1.25) | 0.72 (0.53-1.12) | 0.52 (0.28-1.06) | 0.28 (0.09-0.56) and 0.37 (0.18-0.56) | 0.80 (0.5-1.12) | >1* | >1* | >1* | 0.99 (0.62-1.25) | 0.99 (0.53-1.25) | Avg ΣFIC (range) [5, 18]: 0.26; Avg ΣFIC (range) [5, 19]: >1*; Avg ΣFIC (range) [5, 20]: 0.26; Avg ΣFIC (range) [6, 22]: 0.98; Avg ΣFIC (range) [6, 23]: >1*; Avg ΣFIC (range) [6, 24]: 0.98; Avg ΣFIC (range) ([9]; S. agalactiae 81262 (MHB)): 1.05 (0.75-1.25)
CCCCCCCCCC(=O)N[C@@H](Cc1c[nH]c2ccccc12)C(=O)N[C@H](CC(N)=O)C(=O)N[C@@H](CC(=O)O)C(=O)N[C@@H]1C(=O)NCC(=O)N[C@@H](CCCN)C(=O)N[C@@H](CC(=O)O)C(=O)N[C@H](C)C(=O)N[C@@H](CC(=O)O)C(=O)NCC(=O)N[C@H](CO)C(=O)N[C@@H]([C@H](C)CC(=O)O)C(=O)N[C@@H](CC(=O)c2ccccc2N)C(=O)O[C@@H]1C [Daptomycin, daptomycin] | 0.99 (0.62-1.25) | 1.19 (1.03-1.5) | 1.09 (0.56-1.5) | 1.19 (1.03-1.5) | 1.21 (1.03-1.5) | 1.39 (1.03-2.5) | 1.19 (1.03-1.5) | 1.1 (1.0-1.25) | 1.19 (1.03-1.5) | 1.19 (1.03-1.5) | 1.5 (1-2.25) | 1.39 (1.03-2.25) | 1.54 (1.015-2.5) | 1.23 (1.06-1.5) | 1.58 (1.015-2.5) | 0.82 (0.28-1.25) | 1.34 (1.03-1.5) | 1.19 (1.03-1.5) | 1.10 (0.75-1.5) | 0.83 (0.53-1.12) | Avg ΣFIC (range) [5, 25]: 1.21 (1.03-1.5); Avg ΣFIC (range) [6, 26]: 1.19 (1.03-1.5); Avg ΣFIC (range) ([9]; S. agalactiae 81262 (MHB)): 1.69 (1.06-2.5)
CC(=O)NC[C@H]1CN(c2ccc(N3CCOCC3)c(F)c2)C(=O)O1 [Linezolid, linezolid] | 0.86 (0.56-1.12) | 1.05 (0.75-1.25) | 0.74 (0.53-1.12) | 0.92 (0.75-1.12) | 0.63 (0.5-1.06) | 0.92 (0.62-1.12) | 1.10 (0.56-1.5) | 0.73 (0.515-1.12) | 1.05 (0.75-1.25) | 1.19 (1.03-1.5) | 0.99 (0.62-1.25) | 0.88 (0.62-1.06) | 0.99 (0.75-1.12) | 0.98 (0.62-1.25) | 0.74 (0.515-1.06) | 1.09 (1-1.25) | 1.19 (1.03-1.5) | 1.1 (1-1.25) | 0.80 (0.5-1.06) | 1.1 (1.0-1.25) | Avg ΣFIC (range) [5, 25]: 0.77 (0.56-1.06); Avg ΣFIC (range) [6, 26]: 1.05 (0.75-1.25); Avg ΣFIC (range) ([9]; S. agalactiae 81262 (MHB)): 0.91 (0.53-1.25)
C[C@@H](O)[C@H]1C(=O)N2C(C(=O)O)=C(S[C@@H]3CN[C@H](C(=O)N(C)C)C3)[C@H](C)[C@H]12 [Meropenem] | – | – | – | – | – | – | – | – | – | – | – | – | – | – | – | – | – | – | – | – | Avg ΣFIC (range) [5, 25]: 0.41; Avg ΣFIC (range) [5, 18]: 0.45; Avg ΣFIC (range) [5, 19]: >1*; Avg ΣFIC (range) [5, 20]: 0.45; Avg ΣFIC (range) [6, 26]: 0.52; Avg ΣFIC (range) [6, 22]: 1.11; Avg ΣFIC (range) [6, 23]: >1*; Avg ΣFIC (range) [6, 24]: 1.11
